Source: patent publication US10647680B2, “Urea compound, preparation method therefor and medical use thereof” (Ancureall Pharmaceutical (Shanghai) Co., Ltd., priority 2016, dated 2020)

Key:
Type in all cases: cell-based
[1] = system: A431 (EGFR WT, amplification and high expression); assay: In vitro growth inhibition (GI50), A431; details: Homo sapiens, A-431
From the text: (§1) Tumor cell line is an effective cell model for studying the inhibition of tumor cell growth or proliferation in vitro. In the present invention, a representative tumor cell line was selected to determine the cell growth inhibition activity of the present compound. All cell lines used were from ATCC, DSMZ, and the Cell Bank of the Chinese Academy of Sciences. Cell culture conditions and methods were in accordance with the requirements of each cell line. Cells were subcultured in vitro for no more than 3 passages each time, and as required, single-clone purification and identification of cell lines could be carried out.
(§2) The cell culture media used were RPMI1640 (Gibco), MEM (Gibco), McCOY'S5A (Gibco), and IMDM (Gibco). The complete medium was prepared by supplement with 5˜20% fetal calf serum (Gibco), 1% double-antibiotics (10000 units/mL penicillin and 10000 units/mL), 2 mM glutamine or 1 mM sodium pyruvate, respectively.
(§3) Human epidermal cancer cell line A431 (EGFR WT, amplification and high expression, from Shanghai Cell Bank of Chinese Academy of Sciences and ATCC), human lung cancer cell line NCI-H292 (EGFR WT, purchased from Shanghai Cell Bank of Chinese Academy of Sciences), NSCLC cell lines PC-9 and HCC827 (EGFR exon19 E746-A750 deletion, two cell lines are sensitive to the first-generation EGFR PTK inhibitor), NSCLC cell line NCI-H1975 (EGFR L858R/T790M and the first-generation EGFR inhibitor resistance, ATCC) were cultured with 1×RPMI1640 complete medium (supplement with 10% FBS), respectively.
(§4) Adherent cells were digested with 0.25% pancreatin-EDTA (Gibco). The suspension cells were collected by centrifugation. The supernatant was discarded and the cell pellet was resuspended and counted. Different cell concentrations (5˜10×10^4 cells/mL) were prepared according to the growth cycle of each cell line and then seeded on a 96-well plate (Corning), 100 μL/well. The cells were incubated overnight at 37° C., 5% CO2. The compounds were added to the cells on the second day with 2 wells in parallel. The final concentration of organic solvent shall not exceed 1%. The cells were continually incubated for 3 to 5 days, and then subjected to MTT assay.
(§5) The compound of the present invention and the control compound were dissolved in DMSO (Sigma) respectively, with the purity of more than 98%. The compound was stored in a concentration of 10 mM at −20° C. and diluted to 2- or 10-fold series prior to use.
(§6) Dojindo CCK8 reagent kit was used as MTT assay. THERMO […] FC meter was used as microplate reader.
(§7) For adherent cells, culture medium was removed and immediately replaced with the fresh prepared medium which contains 10% CCK8 reagent (100 μL/well). For the suspension cells, CCK8 was directly added to 10% of the final concentration. The cells were continually incubated for 1˜4 h. When a dark yellow color could be observed in the solvent control wells, the absorbance value at OD450 nm was measured and the cell growth rate was calculated according to the following formula: Cell Growth Rate (%)=100*(T−T0)/(C−T0) T=optical density of drug treatment cell well—optical density of blank control well; T0=optical density of cell well before drug treatment—optical density of blank control well; C=optical density of cell well of solvent control group—optical density of blank control well. The concentration value of 50% inhibition of cell growth (GI50) was calculated according to the drug concentration and cell growth rate curve. The experiment was independently repeated 1˜3 times, and subject to biological statistical analysis. 4. Experimental Results
(§8) Tumor cell growth inhibition test was performed by selecting representative compounds (compounds 4, 11, 12, 16, 27, 68, 71, 77, 79, 89 and 116 of the present invention). The initial concentration of the compound was 5,000 nM, then it was serially diluted by 2-fold or 10-fold to 0.01 nM. The GI50 value of each test compound was calculated according to the GI50 assay and calculation method. […]

[2] = system: HCC827 (EGFR exon19 E746-A750 deletion); assay: In vitro growth inhibition (GI50), HCC827; details: Homo sapiens; HCC827, EGFR DelE746-A750
From the text: as §1, §2, §3, §4, §5, §6, §7, §8

[3] = system: NCI-H460 (KRAS G61H mutant type); assay: In vitro growth inhibition (GI50), NCI-H460; details: Homo sapiens
From the text: as §1, §2
(§9) Human large cell lung cancer cell NCI-H460 (KRAS […] mutant type, ATCC), human non-small cell lung cancer cell line H1299 (NRAS Q61K mutant type, ATCC), human melanoma cell line A375 (BRAF V600E mutant type, Shanghai Cell Bank of Chinese Academy of Sciences), human colon cancer cell line HCT116 (KRAS G13D mutant type, Shanghai Cell Bank, Chinese Academy of Sciences) were cultured in a complete medium of 1×RPMI1640 (10% FBS), respectively. Human non-small cell lung cancer cells A549 (KRAS G12S mutant type, Shanghai Cell Bank, Chinese Academy of Sciences) were cultured in a complete medium of 1× Ham's supplemented with 10% FBS, 1% double antibody, and 2 mM glutamine.
as §4, §5, §6, §7
(§10) Tumor cell growth inhibition test was performed by selecting representative compounds (compounds 4, 11, 12, 16, 27, 68, 71, 77, 79, 89 and 116 of the present invention). The initial concentration of the compound was 5,000 nM, then it was serially diluted by 2-fold or 10-fold to 0.01 nM. […]

[4] = system: HCT116 (KRAS G13D mutant type); assay: In vitro growth inhibition (GI50), HCT116; details: Homo sapiens, HCT-116
From the text: as §1, §2, §9, §4, §5, §6, §7, §10

Row | SMILES | GI50 [1] | GI50 [2] | GI50 [3] | GI50 [4]
1 | CC(C)(C)c1cc(NC(=O)Nc2ccc(-n3cnc4cc(O)ccc43)cc2)no1 [Compound 4, 1-(5-tert-butyl-isoxazol-3-yl)-3-[4-(5-hydroxy-benzimidazol-1-yl)-phenyl]-urea] | 1.89 µM | > 2.5 µM | > 2.5 µM | > 2.5 µM
2 | CC(C)(C)c1cc(NC(=O)Nc2ccc(-n3cnc4cc(OCCO)ccc43)cc2)no1 [Compound 11, 1-(5-tert-butyl-isoxazol-3-yl)-3-{4-[5-(2-hydroxy-ethoxyl)-benzimidazol-1-yl]-phenyl]-urea] | 1.56 µM | > 2.5 µM | > 2.5 µM | > 2.5 µM
3 | CC(C)(C)c1cc(NC(=O)Nc2ccc(-n3cnc4cc(OCCN5CCOCC5)ccc43)cc2)no1 [Compound 16, 1-(5-tert-butyl-isoxazol-3-yl)-3-{4-[5-(2-morpholin-4-yl-ethoxyl)-benzimidazol-1-yl]-phenyl}-urea] | > 2.5 µM | > 2.5 µM | > 2.5 µM | > 2.5 µM
4 | CC(C)(C)c1cc(NC(=O)Nc2ccc(-n3cnc4ccc(OCCN5CCOCC5)cc43)cc2)no1 [Compound 27, 1-(5-tert-butyl-isoxazol-3-yl)-3-{4-[6-(2morpholin-4-yl-ethoxyl)-benzimidazol-1-yl]-phenyl}-urea] | > 2.5 µM | > 2.5 µM | > 2.5 µM | > 2.5 µM
5 | COCCOc1ccc2c(c1)ncn2-c1ccc(NC(=O)Nc2cc(C(C)(C)C)n[nH]2)cc1 [Compound 77, 1-(5-tert-butyl-2H-pyrazol-3-yl)-3-{4-[5-(2-methoxyl-ethoxyl)-benzimidazol-1-yl]-phenyl}-urea] | > 2.5 µM | > 2.5 µM | > 2.5 µM | > 2.5 µM

More lines, now with the values ahead:

Row | GI50 [1] | GI50 [2] | GI50 [3] | GI50 [4] | SMILES
6 | > 2.5 µM | > 2.5 µM | > 2.5 µM | > 2.5 µM | CC(C)(C)c1cc(NC(=O)Nc2ccc(-n3cnc4ccccc43)cc2)[nH]n1 [Compound 68, 1-(4-benzimidazol-1-yl-phenyl)-3-(5-tert-butyl-2H-pyrazol-3-yl)-urea]
7 | > 2.5 µM | > 2.5 µM | > 2.5 µM | > 2.5 µM | COc1ccc2c(c1)ncn2-c1ccc(NC(=O)Nc2cc(C(C)(C)C)n[nH]2)cc1 [Compound 71, 1-(5-tert-butyl-2H-pyrazol-3-yl)-3-[4-(5-methoxyl-benzimidazol-1-yl)-phenyl]-urea]
8 | 2 µM | > 2.5 µM | > 2.5 µM | > 2.5 µM | CC(C)(C)c1cc(NC(=O)Nc2ccc(-n3cnc4cc(OCCO)ccc43)cc2)[nH]n1 [Compound 79, 1-(5-tert-butyl-2H-pyrazol-3-yl)-3-{4-[5-(2-hydroxy-ethoxyl)-benzimidazol-1-yl]-phenyl]urea]
9 | > 2.5 µM | > 2.5 µM | > 2.5 µM | > 2.5 µM | CC(C)(C)c1cc(NC(=O)Nc2ccc(-n3cnc4cc(OCCN5CCOCC5)ccc43)cc2)[nH]n1 [Compound 89, 1-(5-tert-butyl-2H-pyrazol-3-yl)-3-{4-[5-(2-morpholin-4-yl-ethoxyl)-benzimidazol-1-yl]-phenyl}-urea]
10 | > 2.5 µM | > 2.5 µM | > 2.5 µM | > 2.5 µM | CC(C)(C)c1cc(N)n(C(=O)Nc2ccc(-n3cnc4ccccc43)cc2)n1 [Compound 116, 5-amino-3-tert-butyl-pyrazol-1-carboxylic acid (4-benzimidazol-1-yl-phenyl)-amide]
